Data from PubChem BioAssay AID208 (DTP/NCI, 2004).
“And” between values parts separate entries of the source, which are not always exact repeats. Equal entries are not always repeated. Records with an inconclusive call do not appear.

Tested on: HT29 intrarenal xenograft, nude mice, tumor weight change
Test: NCI In Vivo Anticancer Drug Screen. Data for tumor model HT29;CX-1 Human Adenocarcinoma (MER+) (intrarenal inoculation) in NU/NU BALB/C (nude) mice
Details: endpoint: mean tumor weight change, higher = larger tumour
Protocol: The antitumor activity of compounds was measured in mice bearing transplantable tumors. Survival or tumor size were measured and the results are expressed as the measurement made in the treated group (T) divided by the measurement made in the vehicle treated control group (C). The tumor model used in this assay is HT29;CX-1 Human Adenocarcinoma (MER+) (intrarenal inoculation) in NU/NU BALB/C (nude) mice

[1] = dose: 150.0 mg/kg/injection, schedule: Q04DX004 (sc), vehicle: saline
[2] = dose: 300.0 mg/kg/injection, schedule: Q04DX004 (sc), vehicle: saline
[3] = dose: 600.0 mg/kg/injection, schedule: Q04DX004 (sc), vehicle: saline
[4] = dose: 150.0 mg/kg/injection, schedule: Q04DX004 (sc), vehicle: saline with Tween-80
[5] = dose: 300.0 mg/kg/injection, schedule: Q04DX004 (sc), vehicle: saline with Tween-80
[6] = dose: 600.0 mg/kg/injection, schedule: Q04DX004 (sc), vehicle: saline with Tween-80
[7] = dose: 1200.0 mg/kg/injection, schedule: Q04DX004 (sc), vehicle: saline with Tween-80

What does the source list for `CN=C(NC#N)NCCSCc1nc[nH]c1C`?
T/C (dose: 225.0 mg/kg/injection, schedule: Q04DX004 (sc), vehicle: Klucel (hydroxypropylcellulose) (HPC)): 75 % of control; T/C (dose: 450.0 mg/kg/injection, schedule: Q04DX004 (sc), vehicle: Klucel (hydroxypropylcellulose) (HPC)): 99 % of control; T/C (dose: 900.0 mg/kg/injection, schedule: Q04DX004 (sc), vehicle: Klucel (hydroxypropylcellulose) (HPC)): 92 % of control

`CCCCC1CCCCCCc2[nH]c(/C=C3\N=C(c4ccc[nH]4)C=C3OC)cc21` (centres undefined) was tested. Which T/C (dose: 2.0 mg/kg/injection, schedule: Q04DX004 (sc), vehicle: saline with Tween-80) did it give?
The T/C was 100 % of control.

And the T/C (dose: 4.0 mg/kg/injection, schedule: Q04DX004 (sc), vehicle: saline with Tween-80)?
Its T/C is 192 % of control.

And the T/C (dose: 8.0 mg/kg/injection, schedule: Q04DX004 (sc), vehicle: saline with Tween-80)?
The T/C was 92 % of control.

Which results are given for `O=CC(O)C(O)C(O)C(O)CO` (centres undefined)?
T/C (dose: 75.0 mg/kg/injection, schedule: Q04DX004 (ip), vehicle: saline): 195 % of control; T/C (dose: 150.0 mg/kg/injection, schedule: Q04DX004 (ip), vehicle: saline): 164 % of control; T/C (dose: 600.0 mg/kg/injection, schedule: Q04DX004 (ip), vehicle: saline): 164 % of control

For `O=c1[nH]c2c(ccc3cnccc32)c2c1CCC2`, which T/C (dose: 225.0 mg/kg/injection, schedule: Q04DX004 (sc), vehicle: suspension in saline) is on record?
Its T/C is 67 % of control.

What about the T/C (dose: 450.0 mg/kg/injection, schedule: Q04DX004 (sc), vehicle: suspension in saline) of the same compound?
The T/C was 67 % of control.

What about the T/C (dose: 900.0 mg/kg/injection, schedule: Q04DX004 (sc), vehicle: suspension in saline) of the same compound?
Its T/C is 73 % of control.

And the T/C (dose: 1800.0 mg/kg/injection, schedule: Q04DX004 (sc), vehicle: suspension in saline)?
The T/C was 53 % of control.

What does the source list for `O=C1N[C@H]2[C@H](CS[C@H]2CCCCC(=O)N(CCP(c2ccccc2)c2ccccc2)CCP(c2ccccc2)c2ccccc2)N1`?
T/C (dose: 150.0 mg/kg/injection, schedule: Q04DX004 (sc), vehicle: Klucel (hydroxypropylcellulose) (HPC)): 121 % of control; T/C (dose: 600.0 mg/kg/injection, schedule: Q04DX004 (sc), vehicle: Klucel (hydroxypropylcellulose) (HPC)): 86 % of control

For `CCCCCCCCCCCCCCCCCCOCC(COP(=O)([O-])OCC[N+](C)(C)C)OC` (centres undefined), which T/C [1] is on record?
Its T/C is 121 % of control.

`COc1cc(Cc2nccc3cc(OC)c(OC)cc23)c(C(C)=O)c(OC)c1` was tested. Which T/C (dose: 20.0 mg/kg/injection, schedule: Q01DX010 (sc), vehicle: saline) did it give?
Its T/C is 109 % of control.

And the T/C (dose: 80.0 mg/kg/injection, schedule: Q01DX010 (sc), vehicle: saline)?
Its T/C is 64 % of control.

Which results are given for `O=C(O)CC(NC(=O)CP(=O)(O)O)C(=O)O` (centres undefined)?
T/C (dose: 25.0 mg/kg/injection, schedule: Q01DX010 (sc), vehicle: saline): 123 % of control; T/C (dose: 50.0 mg/kg/injection, schedule: Q01DX010 (sc), vehicle: saline): 94 % of control; T/C (dose: 100.0 mg/kg/injection, schedule: Q01DX010 (sc), vehicle: saline): 91 % of control; T/C (dose: 200.0 mg/kg/injection, schedule: Q01DX010 (sc), vehicle: saline): 70 % of control

For `OCC1OC(n2cnc3c(=S)nc[nH]c32)C(O)C1O` (centres undefined), which T/C [1] is on record?
Its T/C is 91 % of control.

And the T/C [2]?
The T/C was 173 % of control.

And the T/C [3]?
The T/C was 103 % of control.

`N#CC(OC1OC(COC2OC(CO)C(O)C(O)C2O)C(O)C(O)C1O)c1ccccc1` (centres undefined) was tested. Which T/C [2] did it give?
The T/C was 95 % of control.

What about the T/C [3] of the same compound?
Its T/C is 96 % of control.

What about the T/C (dose: 1200.0 mg/kg/injection, schedule: Q04DX004 (sc), vehicle: saline) of the same compound?
The T/C was 88 % of control.

And the T/C (dose: 2400.0 mg/kg/injection, schedule: Q04DX004 (sc), vehicle: saline)?
Its T/C is 94 % of control.

What does the source list for `O=C(NC1CCCCC1)OCc1c(COC(=O)NC2CCCCC2)c(-c2ccc(Cl)c(Cl)c2)n2c1CCC2`?
T/C [4]: 67 % of control; T/C [5]: 60 % of control; T/C [6]: 54 % of control; T/C [7]: 65 % of control

`C1CC[N-]CC1.[Cl][Pt+2][Cl].[NH-]C1CC1` was tested. Which T/C (dose: 25.0 mg/kg/injection, schedule: Q04DX004 (sc), vehicle: water) did it give?
Its T/C is 99 % of control.

And the T/C (dose: 50.0 mg/kg/injection, schedule: Q04DX004 (sc), vehicle: water)?
The T/C was 46 % of control.

`Cc1cnc(/C=N\NC(N)=S)c2cccc(N)c12` was tested. Which T/C (dose: 125.0 mg/kg/injection, schedule: Q04DX004 (ip), vehicle: saline with Tween-80) did it give?
The T/C was 92 % of control.

For `CCn1cnc2c(=S)nc[nH]c21`, which T/C [1] is on record?
Its T/C is 175 % of control.

Which results are given for `N=C(N)c1ccc(/C=C/c2ccc(C(=N)N)cc2O)cc1`?
T/C (dose: 75.0 mg/kg/injection, schedule: Q04DX004 (sc), vehicle: water): 101 % of control; T/C (dose: 150.0 mg/kg/injection, schedule: Q04DX004 (sc), vehicle: water): 86 % of control

Which T/C (dose: 600.0 mg/kg/injection, schedule: Q04DX004 (ip), vehicle: Klucel (hydroxypropylcellulose) (HPC)) does the source give for `Oc1c(Cl)cc(Cl)cc1C=NCCSc1ccc(Cl)cc1` here?
Its T/C is 105 % of control and 88 % of control.

What about the T/C (dose: 1200.0 mg/kg/injection, schedule: Q04DX004 (ip), vehicle: Klucel (hydroxypropylcellulose) (HPC)) of the same compound?
Its T/C is 80 % of control.

What does the source list for `FC(F)(F)c1nc2nc(Cl)c(Cl)nc2[nH]1`?
T/C (dose: 75.0 mg/kg/injection, schedule: Q04DX004 (sc), vehicle: saline with Tween-80): 112 % of control; T/C [4]: 42 % of control; T/C [5]: 71 % of control

What does the source list for `COc1nc(=O)n(C2C=CC(=O)O2)cc1F` (centres undefined)?
T/C (dose: 75.0 mg/kg/injection, schedule: Q04DX004 (sc), vehicle: suspension in saline): 52 % of control; T/C (dose: 150.0 mg/kg/injection, schedule: Q04DX004 (sc), vehicle: suspension in saline): 122 % of control

With `Cc1ccc(S(=O)(=O)N/N=C/C(Br)=C(/Br)C(=O)O)cc1` as the compound, how does the T/C (dose: 1.25 mg/kg/injection, schedule: Q04DX004 (sc), vehicle: saline) read?
The T/C was 103 % of control.

What about the T/C (dose: 2.5 mg/kg/injection, schedule: Q04DX004 (sc), vehicle: saline) of the same compound?
The T/C was 78 % of control.

And the T/C (dose: 5.0 mg/kg/injection, schedule: Q04DX004 (sc), vehicle: saline)?
The T/C was 105 % of control.

Which results are given for `Cc1cc(N(CC(C)Br)CC(C)Br)ccc1N=Nc1ccccc1C(=O)O` (centres undefined)?
T/C (dose: 3.13 mg/kg/injection, schedule: Q01DX010 (sc), vehicle: saline with Tween-80): 65 % of control; T/C (dose: 6.25 mg/kg/injection, schedule: Q01DX010 (sc), vehicle: saline with Tween-80): 55 % of control; T/C (dose: 12.5 mg/kg/injection, schedule: Q01DX010 (sc), vehicle: saline with Tween-80): 57 % of control

With `COC1(OC)C2C=CC1CC2` as the compound, how does the T/C [4] read?
Its T/C is 114 % of control.

And the T/C [5]?
Its T/C is 72 % of control.

What about the T/C [6] of the same compound?
The T/C was 123 % of control.

And the T/C [7]?
Its T/C is 197 % of control.

Which T/C (dose: 5.0 mg/kg/injection, schedule: Q01DX010 (sc), vehicle: Klucel (hydroxypropylcellulose) (HPC)) does the source give for `c1ccc2c(NCCCCCCNc3c4ccccc4nc4ccccc34)c3ccccc3nc2c1` here?
Its T/C is 154 % of control.

What about the T/C (dose: 10.0 mg/kg/injection, schedule: Q01DX010 (sc), vehicle: Klucel (hydroxypropylcellulose) (HPC)) of the same compound?
Its T/C is 88 % of control.

Which results are given for `NC(=O)c1ccc[n+](Cc2c(Cl)cccc2Cl)c1`?
T/C (dose: 25.0 mg/kg/injection, schedule: Q04DX004 (sc), vehicle: saline): 93 % of control; T/C (dose: 50.0 mg/kg/injection, schedule: Q04DX004 (sc), vehicle: saline): 91 % of control; T/C (dose: 200.0 mg/kg/injection, schedule: Q04DX004 (sc), vehicle: saline): 205 % of control

What does the source list for `CCC1=C[C@H]2CN(CCc3c([nH]c4ccccc34)[C@@](C(=O)OC)(c3cc4c(cc3OC)N(C)[C@H]3[C@@](O)(C(=O)OC)[C@H](OC(C)=O)[C@]5(CC)C=CCN6CC[C@]43[C@@H]65)C2)C1`?
T/C (dose: 0.38 mg/kg/injection, schedule: Q04DX004 (sc), vehicle: water): 116 % of control; T/C (dose: 0.75 mg/kg/injection, schedule: Q04DX004 (sc), vehicle: water): 159 % of control; T/C (dose: 1.5 mg/kg/injection, schedule: Q04DX004 (sc), vehicle: water): 118 % of control; T/C (dose: 3.0 mg/kg/injection, schedule: Q04DX004 (sc), vehicle: water): 40 % of control; T/C (dose: 6.0 mg/kg/injection, schedule: Q04DX004 (sc), vehicle: water): 100 % of control; T/C (dose: 12.0 mg/kg/injection, schedule: Q04DX004 (sc), vehicle: water): 66 % of control

`CCC1=C[C@H]2CN(CCc3c([nH]c4ccccc34)[C@@](C(=O)OC)(c3cc4c(cc3OC)N(C)[C@H]3[C@@](O)(C(=O)NC)[C@H](OC(C)=O)[C@]5(CC)C=CCN6CC[C@]43[C@@H]65)C2)C1` was tested. Which T/C (dose: 2.0 mg/kg/injection, schedule: Q04DX004 (sc), vehicle: water) did it give?
Its T/C is -17 % of control and 8 % of control.

And the T/C (dose: 4.0 mg/kg/injection, schedule: Q04DX004 (sc), vehicle: water)?
The T/C was -99 % of control.

Which results are given for `CC(=O)Oc1[nH]c(=O)c2cccc3c2c1CCC3`?
T/C [4]: 207 % of control; T/C [5]: 105 % of control

`CCc1ccc(C2=C(O)C(=O)C(c3ccc(CC)cc3)=C(O)C2=O)cc1` was tested. Which T/C (dose: 100.0 mg/kg/injection, schedule: Q04DX004 (sc), vehicle: saline with Tween-80) did it give?
Its T/C is 112 % of control.

What about the T/C (dose: 200.0 mg/kg/injection, schedule: Q04DX004 (sc), vehicle: saline with Tween-80) of the same compound?
Its T/C is 91 % of control.

What about the T/C (dose: 400.0 mg/kg/injection, schedule: Q04DX004 (sc), vehicle: saline with Tween-80) of the same compound?
The T/C was 102 % of control.
